In one data set the target is T1, UGT2B15 (Homo sapiens, UniProt P54855).
T1 construct: purchased Corning Life Sciences
T1 sequence (P54855 24-530): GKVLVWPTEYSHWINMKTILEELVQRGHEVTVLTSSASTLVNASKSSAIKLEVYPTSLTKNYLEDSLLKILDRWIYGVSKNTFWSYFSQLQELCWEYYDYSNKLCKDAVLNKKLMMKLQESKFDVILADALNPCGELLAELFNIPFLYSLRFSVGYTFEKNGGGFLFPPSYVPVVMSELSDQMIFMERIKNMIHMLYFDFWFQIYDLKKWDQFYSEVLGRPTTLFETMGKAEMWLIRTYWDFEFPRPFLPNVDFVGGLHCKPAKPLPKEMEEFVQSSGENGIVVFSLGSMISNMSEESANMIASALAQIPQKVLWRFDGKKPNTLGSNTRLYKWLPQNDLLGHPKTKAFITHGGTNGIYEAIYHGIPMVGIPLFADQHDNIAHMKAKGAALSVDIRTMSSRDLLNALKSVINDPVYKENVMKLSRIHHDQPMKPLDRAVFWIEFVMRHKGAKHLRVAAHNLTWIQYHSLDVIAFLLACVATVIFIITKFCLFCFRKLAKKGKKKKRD
As to the kind of experiment: Inhibition of UGT2B15 (4-methylumbelliferyl glucuronidation) in recombinant human UGT2B15 supersomes. The class given is in vitro ADME. The protocol:
Although S-oxazepam is a typical substrate of UGT2B15 of human liver microsomes, authentic S-oxazepam and the corresponding glucuronide are not commercially […]. Thus, the inhibition of AS, βC, CA, LU, and ZE on the UGT2B15 activity was assessed using 4-methylumbelliferone as the nonspecific probe substrate for all UGTs except UGT1A4 [34] in recombinant human UGT2B15 supersomes.
The reaction was initiated by addition of 10 µL 5 mM UDPGA (to 100 µL total volume) followed by incubation for 120 min at 37 °C in a shaking water bath. Reactions were stopped by addition of 50 µL of ice-cold acetonitrile containing chlorpropamide (300 ng/mL) as an internal standard, and they were chilled and centrifuged (13,000 g, 15 min, 4 °C). An aliquot of 5 μL of supernatant was injected into an LC-MS/MS system. Additionally, identical parallel incubation samples containing a known UGT2B15 inhibitor amitriptyine (0–200 μM) was included as a positive control for UGT2B15.
(§1) For visual inspection, data were presented as Dixon plots.

In data set [1] the target is T2, UGT1A1 (Homo sapiens, UniProt P22309).
T2 sequence (P22309 26-533): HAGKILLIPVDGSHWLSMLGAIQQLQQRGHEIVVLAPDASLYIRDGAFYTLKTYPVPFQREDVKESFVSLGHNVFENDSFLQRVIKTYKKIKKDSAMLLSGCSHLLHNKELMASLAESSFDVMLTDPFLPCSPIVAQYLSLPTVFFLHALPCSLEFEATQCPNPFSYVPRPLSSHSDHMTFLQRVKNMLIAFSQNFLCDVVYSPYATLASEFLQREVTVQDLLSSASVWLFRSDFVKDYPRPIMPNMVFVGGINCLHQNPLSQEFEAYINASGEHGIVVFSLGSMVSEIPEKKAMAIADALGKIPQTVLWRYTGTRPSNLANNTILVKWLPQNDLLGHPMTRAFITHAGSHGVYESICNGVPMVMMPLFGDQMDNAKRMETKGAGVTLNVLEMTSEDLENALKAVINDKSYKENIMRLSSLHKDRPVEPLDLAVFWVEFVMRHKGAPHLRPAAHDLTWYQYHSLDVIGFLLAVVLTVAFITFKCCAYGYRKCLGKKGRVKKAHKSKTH
The experiment in a line: Inhibition of UGT1A1 (β-estradiol-3-glucuronidation) in human liver microsomes. Conditions: for Residual UGT1A1 enzyme activity: highest tested concentration 50 μM.
Method: The formation activities of β-estradiol-3-glucuronide, chenodeoxycholic acid 24-acyl-β-D-glucuronide, trifluoperazine-N-glucuronide, imipramine-N-β-D-glucuronide, serotonin-O-glucuronide, propofol-O-glucuronide, and zidovudine-5′-glucuronide were determined to probe the activities of UGT1A1, UGT1A3, UGT1A4, UGT1A6, UGT1A9 and UGT2B7, respectively, in human liver microsomes.
In brief, the 90-µL incubation mixture, including pooled human liver microsomes (final concentration 0.25 mg/mL), 100 mM Tris buffer, 25 µg/mL alamethicin, 5 mM MgCl2, the UGT-selective substrates, and five xanthophylls (0–50 μM), were pre-incubated for 30 min on ice to allow formation of alamethicin pores. Reac2345tions were initiated by the addition of 10 μL of UDPGA (5 mM) to a final reaction volume of 0.1 mL and incubated at 37 °C for 60 min (except 30 min for UGT1A9) in a shaking water bath. After incubation, each reaction was stopped by adding 50 μL of ice-cold acetonitrile containing chlorpropamide (300 ng/mL) or theophylline (30 μg/mL or 300 μg/mL) as an internal standard. The mixtures were then centrifuged (13,000 g for 15 min at 4 °C) and 5-µL aliquots of the supernatants were injected into an LC-MS/MS system. […] All incubations were performed in triplicate, and mean values were used for analysis.
Chromatographic separations were performed on an Agilent Poroshell 120 EC-C18 column (50 mm × 4.6-mm i.d.; 2.7-μm particle size; Agilent Technologies) to quantify β-estradiol-3-glucuronide (UGT1A1), chenodeoxycholic acid 24-acyl-β-D-glucuronide (UGT1A3), trifluoperazine-N-glucuronide (UGT1A4), propofol-O-glucuronide (UGT1A9), zidovudine-5′-glucuronide (UGT2B7), and 4-methylumbelliferyl glucuronide (UGT2B15); an Agilent Poroshell 120 EC-C18 column (100 × 4.6-mm i.d.; 2.7-mm particle size) was used for quantification of serotonin-O-glucuronide (UGT1A6). The isocratic mobile phase consisted of distilled water (A) and acetonitrile containing 0.1% formic acid (B) at a ratio (v/v) of 10:90 for chenodeoxycholic acid 24-acyl-β-D-glucuronide, 30:70 for trifluoperazine-N-glucuronide and zidovudine-5′-glucuronide, 50:50 for propofol-O-glucuronide and 4-methylumbelliferyl glucuronide, 65:35 for β-estradiol-3-glucuronide, and 90:10 for serotonin-O-glucuronide, at a flow rate of 0.5 mL/min. The total run time was 4.0 min per sample for each metabolite, with the exception of serotonin-O-glucuronide (6.0 min). Peak areas for all of the analytes were automatically integrated using Analyst software (version 1.5.2, Applied Biosystems, Foster City, CA, USA).
The IC50 values were calculated via nonlinear least-squares regression analysis from plots of the logarithms of inhibitor concentration vs. the residual percentages of activities after inhibition, using WinNonlin (ver. 4.0; Pharsight, Mountain View, CA, USA).

Details of data set [2]: method as in PMID 13129448. Conditions: healthy subjects, single-dose carotenoid supplement containing 1.3 mg of esterified βC, oral; read-out: mean Cmax (maximum plasma concentration); cited from earlier work.
Data set [3] concerns the target T2, UGT1A1. As to the kind of experiment: Ki determination on UGT1A1 activity (β-estradiol-3-glucuronidation) in human liver microsomes. The protocol:
Based on the lowest IC50 value, the inhibitor constant (Ki) values of the βC for UGT1A1 were determined. […] All incubations were performed in triplicate, and the mean values were used for the analysis. Other procedures were similar to those of the reversible inhibition studies.
as §1

The target in data set [4] is T2, UGT1A1. As to the kind of experiment: Prediction of in vivo drug interaction via UGT1A1 inhibition (AUCi/AUC = 1 + [I]in vivo/Ki). Also noted: pooled human liver microsomes (final concentration 0.25 mg/mL); tissue Corning Life Sciences; host or cells: pooled human liver microsomes, 150 donors. The text has this: As far as we know, for reversible inhibitors, the magnitude of the drug-drug interaction is affected by both the in vitro inhibition constant (Ki) and the in vivo inhibitor concentration. […] In this study, the maximum plasma concentration (Cmax) of βC was used as the [I]in vivo value, and the fraction metabolized by the UGT1A1 of the co-administrated drug was supposed to be 1.

[5] abbreviates: recombinant UGT2B15 supersomes, 250 μM 4-methylumbelliferone, mean ± SD of triplicate, read-out: IC50 towards UGT2B15.
Where [6] appears, read: read-out: IC50 towards UGT1A1, human liver microsomes, 10 μM β-estradiol, mean ± SD of triplicate.

Like-named read-outs stand apart in the source and are kept apart here.

`CC1=C[C@H](O)CC(C)(C)[C@H]1/C=C/C(C)=C/C=C/C(C)=C/C=C/C=C(C)/C=C/C=C(C)/C=C/C1=C(C)C[C@@H](O)CC1(C)C` [LU, lutein]: the IC50 is > 50 µM on UGT2B15 and 45.5 ± 4.01 µM at UGT1A1 [1].
In the case of `CC1=C(/C=C/C(C)=C/C=C/C(C)=C/C=C/C=C(C)/C=C/C=C(C)/C=C/C2=C(C)C[C@@H](O)CC2(C)C)C(C)(C)C[C@H](O)C1` [ZE, zeaxanthin], the IC50 at UGT2B15 and against UGT1A1 [1] was > 50 µM each time. In addition, at UGT1A1 [1] (human liver microsomes), the “Residual UGT1A1 enzyme activity” value was 61.2%.
As to `CC1=C(/C=C/C(C)=C/C=C/C(C)=C/C=C/C=C(C)/C=C/C=C(C)/C=C/C2=C(C)C[C@@H](O)CC2(C)C)C(C)(C)CCC1` [βC, β-cryptoxanthin], the results for the IC50 at UGT2B15 (setting [5]) and at UGT1A1 [1] (setting [6]) were > 50 µM and 18.8 ± 2.07 µM, respectively. In addition, the Cmax in data set [2] is ~150 nM. At UGT1A1 [3] (Dixon plots / nonlinear regression), the “Mode of inhibition of UGT1A1” value was “competitive inhibition”. Besides, the Ki at UGT1A1 [3] (read-out: Ki against UGT1A1-catalyzed β-estradiol-3-glucuronidation, β-estradiol 5, 10 and 20 μM, nonlinear regression) was found to be 12.2 ± 0.985 µM. Also, on UGT1A1 [4] (calculated from Cmax 0.15 μM and Ki, fraction metabolized by UGT1A1 supposed to be 1), the “AUCi/AUC ratio for UGT1A1” value was 1.012. The “Predicted increase of AUC of co-administered drug” value on UGT1A1 [4] (drugs that undergo 100% UGT1A1-mediated elimination) is 1.2%.
For the compound `CC1=C(/C=C/C(C)=C/C=C/C(C)=C/C=C/C=C(C)/C=C/C=C(C)/C=C/C2=C(C)C(=O)[C@@H](O)CC2(C)C)C(C)(C)C[C@H](O)C1=O` [AS, astaxanthin], the concentration for half-maximal inhibition (IC50) on UGT2B15 and at UGT1A1 [1] was > 50 µM each time. Moreover, on UGT1A1 [1] (human liver microsomes), the “Residual UGT1A1 enzyme activity” value was “greater than 80%”.
For `CC1=C(/C=C/C(C)=C/C=C/C(C)=C/C=C/C=C(C)/C=C/C=C(C)/C=C/C2=C(C)C(=O)CCC2(C)C)C(C)(C)CCC1=O` [CA, canthaxanthin], the figures for the IC50 on UGT2B15 (setting [5]) and on UGT1A1 [1] (setting [6]) were > 50 µM and 38.5 ± 4.65 µM, respectively.

The values above are taken from paper PMC6272861, “In Vitro Inhibition of Human UDP-Glucuronosyl-Transferase (UGT) Isoforms by Astaxanthin, β-Cryptoxanthin, Canthaxanthin, Lutein, and Zeaxanthin: Prediction of in Vivo Dietary Supplement-Drug Interactions” (Molecules, 2016).
